# According to patent publication US20250074919A1, “Heteroaryl compounds as inhibitors of irak4, compositions and applications thereof” (Accro Bioscience (HK) Limited, priority 2021, published 2025):
# Counter-ions that a name gives are not always drawn.
# Target: IRAK4 (Homo sapiens (Human), UniProt Q9NWZ3)
# Assay: Screening the compounds against IRAK4 with ATP (Caliper, FAM-labeled peptide)
# Assay type: biochemical
# Conditions: IRAK4 kinase inhibition relative to CA4948
# Method: Prepare Ix kinase base buffer and stop buffer for testing kinases: (1) base buffer: 50 mM HEPES (pH 7.5), 0.0015% Brij-35; (2) stop buffer: 100 mM HEPES (pH 7.5), 0.015% Brij-35, 0.2% Coating Reagent #3, 50 mM EDTA. Then prepare compounds for testing: Dilute the compound to 50× of the final desired highest inhibitor concentration in reaction by 100% DMSO. Transfer 100 μL of this compound dilution to a well in a 96-well plate (source plate).
# Serially dilute the compounds by 3-fold for a total of 10 points. Transfer 10 μL of the compound from the source plate to a new 96-well plate (intermediate plate) and add 90 μL of Ix kinase buffer. Shake the mixture on the intermediate plate for 10 min. Transfer 5 μL of each well from the 96-well intermediate plate to a 384-well plate in duplicates. Add 10 μL of 2.5× enzyme solution to each well of the 384-well assay plate and incubate at room temperature for 10 min. Add 10 μL, of 2.5×FAM-labeled peptide and ATP solution and incubate at 28° C. for a period of time. Finally stop the reaction by adding 30 μL of stop buffer and collect data on Caliper to obtain the IC50.
# IRAK4, sequence (Q9NWZ3 whole entry): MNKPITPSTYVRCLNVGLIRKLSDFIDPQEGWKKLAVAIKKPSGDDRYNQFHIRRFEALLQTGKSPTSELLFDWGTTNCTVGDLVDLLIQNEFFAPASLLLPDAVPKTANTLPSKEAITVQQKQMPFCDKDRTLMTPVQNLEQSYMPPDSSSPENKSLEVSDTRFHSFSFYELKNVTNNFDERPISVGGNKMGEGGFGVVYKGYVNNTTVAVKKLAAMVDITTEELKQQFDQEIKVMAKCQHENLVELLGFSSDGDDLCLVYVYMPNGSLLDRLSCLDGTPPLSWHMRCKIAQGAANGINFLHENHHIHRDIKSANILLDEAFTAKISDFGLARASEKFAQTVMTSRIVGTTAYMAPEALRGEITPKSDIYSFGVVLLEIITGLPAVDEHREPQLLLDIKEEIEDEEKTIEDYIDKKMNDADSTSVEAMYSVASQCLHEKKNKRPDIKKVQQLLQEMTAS
row,"activity, times better than that of the positive control compound CA4948",SMILES
1,more than 10 times,"Cn1cc(-c2cccc(NC(=O)c3cc4c(nc3O[C@@H]3CCOC3)OC(C)(C)C4)n2)cn1 [Compound B33, (R)-2,2-Dimethyl-N-(6-(1-methyl-1H-pyrazol-4-yl)pyridin-2-yl)-6-((tetrahydrofuran-3-yl)oxy)-2,3-dihydrofuro[2,3-b]pyridine-5-carboxamide]"

# Same assay, conditions: read-out: IC50 (nM) (10 μM ATP)
row,SMILES,IC50 [nM]
1,"COC1CCN(c2nc3nc(N4CCN(CCO)CC4)oc3cc2C(=O)Nc2cccc(-c3cnn(C)c3)n2)CC1 [Compound A57, 2-(4-(2-Hydroxyethyl)piperazin-1-yl)-5-(4-methoxypiperidin-1-yl)-N-(6-(1-methyl-1H-pyrazol-4-yl)pyridin-2-yl)oxazolo[4,5-b]pyridine-6-carboxamide]",5.1

# Same assay, conditions: read-out: IC50 (nM) (10 μM ATP); IRAK4 kinase, 10 μM ATP
row,SMILES,IC50 [nM]
1,"COc1cccc(NC(=O)c2cc3oc(N4CCOCC4)nc3nc2N2CCC(OC)CC2)n1 [Compound A46, 5-(4-Methoxypiperidin-1-yl)-N-(6-methoxypyridin-2-yl)-2-morpholinooxazolo[4,5-b]pyridine-6-carboxamide]",179
2,"COC1CCN(c2nc3nc(N4CCN(C)CC4)oc3cc2C(=O)Nc2cccc(-c3cnn(C)c3)n2)CC1 [Compound A52, 5-(4-Methoxypiperidin-1-yl)-N-(6-(1-methyl-1H-pyrazol-4-yl)pyridin-2-yl)-2-(4-methylpiperazin-1-yl)oxazolo[4,5-b]pyridine-6-carboxamide]",5.1
3,"N#Cc1cccc(NC(=O)c2cc3oc(N4CCOCC4)nc3nc2N2CCC(O)CC2)n1 [Compound A42, N-(6-Cyanopyridin-2-yl)-5-(4-hydroxypiperidin-1-yl)-2-morpholinooxazolo[4,5-b]pyridine-6-carboxamide]",87
4,"CN(C)C1CCN(c2nc3nc(N4CCOCC4)oc3cc2C(=O)Nc2cccc(-c3cnn(C)c3)n2)CC1 [Compound A23, 5-(4-(Dimethylamino)piperidin-1-yl)-N-(6-(1-methyl-1H-pyrazol-4-yl)pyridin-2-yl)-2-morpholinooxazolo[4,5-b]pyridine-6-carboxamide]",425
5,"CC1CN(c2nc3nc(N4CCOCC4)oc3cc2C(=O)Nc2cccc(-c3cnn(C)c3)n2)CCN1C (centres unmarked) [Compound A30, 5-(3,4-Dimethylpiperazin-1-yl)-N-(6-(1-methyl-1H-pyrazol-4-yl)pyridin-2-yl)-2-morpholinooxazolo[4,5-b]pyridine-6-carboxamide Hydrochloride]",125
6,"COCCN1CCN(c2nc3nc(N4CCOCC4)oc3cc2C(=O)Nc2cccc(-c3cnn(C)c3)n2)CC1 [Compound A34, 5-(4-(2-Methoxyethyl)piperazin-1-yl)-N-(6-(1-methyl-1H-pyrazol-4-yl)pyridin-2-yl)-2-morpholinooxazolo[4,5-b]pyridine-6-carboxamide Hydrochloride]",40
7,"Cn1cc(-c2cccc(NC(=O)c3cc4c(nc3OC3CCC3)OC(C)(C)C4)n2)cn1 [Compound B14, 6-Cyclobutoxy-2,2-dimethyl-N-(6-(1-methyl-1H-pyrazol-4-yl)pyridin-2-yl)-2,3-dihydrofuro[2,3-b]pyridine-5-carboxamide]",6.1
8,"Cn1cc(-c2cccc(NC(=O)c3cc4oc(N5CCOCC5)nc4nc3N3CCNCC3)n2)cn1 [Compound A13, N-(6-(1-Methyl-1H-pyrazol-4-yl)pyridin-2-yl)-2-morpholino-5-(piperazin-1-yl)oxazolo[4,5-b]pyridine-6-carboxamide]",304
9,"CN1CCN(c2nc3nc(N4CCC5(CCO5)CC4)c(C(=O)Nc4cccc(-c5cnn(C)c5)n4)cc3o2)CC1 [Compound A58, N-(6-(1-Methyl-1H-pyrazol-4-yl)pyridin-2-yl)-2-(4-methylpiperazin-1-yl)-5-(1-oxa-7-azaspiro[3.5]nonan-7-yl)oxazolo[4,5-b]pyridine-6-carboxamide]",4.9
10,"Cn1cc(-c2cccc(NC(=O)c3cc4oc(N5CCOCC5)nc4nc3N3CCCC(O)C3)n2)cn1 (centres unmarked) [Compound A16, 5-(3-Hydroxypiperidin-1-yl)-N-(6-(1-methyl-1H-pyrazol-4-yl)pyridin-2-yl)-2-morpholinooxazolo[4,5-b]pyridine-6-carboxamide]",31

# Second part, the compound after the results:
row,IC50 [nM],SMILES
1,6.2,"CC(C)Oc1nc2c(cc1C(=O)Nc1cccc(-c3cnn(C)c3)n1)CC(C)(C)O2 [Compound B13, 6-Isopropoxy-2,2-dimethyl-N-(6-(1-methyl-1H-pyrazol-4-yl)pyridin-2-yl)-2,3-dihydrofuro[2,3-b]pyridine-5-carboxamide]"
2,9.2,"CCOc1nc2c(cc1C(=O)Nc1cccc(-c3cnn(C)c3)n1)CC(C)(C)O2 [Compound B12, 6-Ethoxy-2,2-dimethyl-N-(6-(1-methyl-1H-pyrazol-4-yl)pyridin-2-yl)-2,3-dihydrofuro[2,3-b]pyridine-5-carboxamide]"
3,11,"Cn1cc(-c2cccc(NC(=O)c3cc4c(nc3OC3CCOCC3)OC(C)(C)C4)n2)cn1 [Compound B23, 2,2-Dimethyl-N-(6-(1-methyl-1H-pyrazol-4-yl)pyridin-2-yl)-6-((tetrahydro-2H-pyran-4-yl)oxy)-2,3-dihydrofuro[2,3-b]pyridine-5-carboxamide]"
4,6.5,"Cn1cc(-c2cccc(NC(=O)c3cc4c(nc3O[C@H]3CCOC3)OC(C)(C)C4)n2)cn1 [Compound B17, (S)-2,2-Dimethyl-N-(6-(1-methyl-1H-pyrazol-4-yl)pyridin-2-yl)-6-((tetrahydrofuran-3-yl)oxy)-2,3-dihydrofuro[2,3-b]pyridine-5-carboxamide]"
5,75,"CN1CCC(Oc2nc3c(cc2C(=O)Nc2cccc(-c4cnn(C)c4)n2)CC(C)(C)O3)C1 (centres unmarked) [Compound B21, 2,2-Dimethyl-N-(6-(1-methyl-1H-pyrazol-4-yl)pyridin-2-yl)-6-((1-methylpyrrolidin-3-yl)oxy)-2,3-dihydrofuro[2,3-b]pyridine-5-carboxamide]"
6,5.9,"Cn1cc(-c2cccc(NC(=O)c3cc4c(nc3N3CCC5(CCO5)CC3)OC(C)(C)C4)n2)cn1 [Compound B6, 2,2-Dimethyl-N-(6-(1-methyl-1H-pyrazol-4-yl)pyridin-2-yl)-6-(1-oxa-7-azaspiro[3.5]nonan-7-yl)-2,3-dihydrofuro[2,3-b]pyridine-5-carboxamide]"
7,27,"Cn1cc(-c2cccc(NC(=O)c3cc4c(nc3OC(F)F)OC(C)(C)C4)n2)cn1 [Compound B20, 6-(Difluoromethoxy)-2,2-dimethyl-N-(6-(1-methyl-1H-pyrazol-4-yl)pyridin-2-yl)-2,3-dihydrofuro[2,3-b]pyridine-5-carboxamide]"
8,170,"Cn1cc(-c2cccc(NC(=O)c3cc4c(nc3OC3CNC3)OC(C)(C)C4)n2)cn1 [Compound B30, 6-(Azetidin-3-yloxy)-2,2-dimethyl-N-(6-(1-methyl-1H-pyrazol-4-yl)pyridin-2-yl)-2,3-dihydrofuro[2,3-b]pyridine-5-carboxamide]"
9,69,"CC1(C)Cc2cc(C(=O)Nc3cccn([C@H]4C[C@H]4F)c3=O)c(N3CCC(O)CC3)nc2O1 [Compound B9, N-(1-((1S,2R)-2-Fluorocyclopropyl)-2-oxo-1,2-dihydropyridin-3-yl)-6-(4-hydroxypiperidin-1-yl)-2,2-dimethyl-2,3-dihydrofuro[2,3-b]pyridine-5-carboxamide]"
10,8.9,"Cn1cc(-c2cccc(NC(=O)c3cc4c(nc3O[C@@H]3CCOC3)OC(C)(C)C4)n2)cn1 [Compound B33, (R)-2,2-Dimethyl-N-(6-(1-methyl-1H-pyrazol-4-yl)pyridin-2-yl)-6-((tetrahydrofuran-3-yl)oxy)-2,3-dihydrofuro[2,3-b]pyridine-5-carboxamide]"
11,13,"CC(Oc1nc2c(cc1C(=O)Nc1cccc(-c3cnn(C)c3)n1)CC(C)(C)O2)C1CC1 (centres unmarked) [Compound B26, 6-(1-Cyclopropylethoxy)-2,2-dimethyl-N-(6-(1-methyl-1H-pyrazol-4-yl)pyridin-2-yl)-2,3-dihydrofuro[2,3-b]pyridine-5-carboxamide]"
